A word on the GI50: it is the concentration that inhibits growth by half. One may read the TGI as the concentration giving total growth inhibition. High values mean lower sensitivity of the cells, low ones greater sensitivity of the cells.

Holding throughout (test): DTP human tumour cell line panel, 48 h
Test [1] has as its system SW-620 colon.
Test [2] has as its system TK-10 renal.
Test [3] deals with SK-MEL-28 melanoma.
Test [4] relates to 786-0 renal.
Test [5] deals with M14 melanoma.
Test [6] has as its system A549 NSCLC.
Test [7] deals with DU-145 prostate.
Test [8] concerns CAKI-1 renal.
The test system of test [9] is MALME-3M melanoma.
Test [10] has as its system OVCAR-4 ovarian.

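Five compound concentrations were applied to cells in 96-well plates for 48 hours; endpoints were derived by simple linear interpolation of the resulting dose-response curve. GI50 marks 50% less growth. Definition used: TGI = concentration required for complete inhibition of growth.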

For the molecule `Cn1cc(C2=C(c3cn(C4CCN(Cc5ccccn5)CC4)c4ccccc34)C(=O)NC2=O)c2ccccc21`, the GI50 in test [1] is 4.02 µM; in [2], over 41.5 µM; in test [3], 6.07 µM; in [4] it was 8.43 µM; in test [5] it was 4.61 µM; in test [6], 4.92 µM. The figures for the GI50 in test [7], in [8] and in [9] were over 100 µM, over 21.6 µM and over 23.4 µM, respectively. In addition, the TGI in test [1] is over 100 µM; in test [2], over 100 µM; in test [3], over 100 µM; in test [4], over 91.1 µM; in [5], over 100 µM; in [6], over 100 µM. Further, the TGI in [7], in [8] and in test [9] was over 100 µM in each case.

For the molecule `CC(=O)/C(=C/c1ccccc1F)C(=O)c1ccccc1`, the TGI was 56.1 µM in test [1]; 80.9 µM in test [2]; over 100 µM in test [3]; over 100 µM in test [4]; over 100 µM in test [5]; over 100 µM in test [6]. For the same molecule, the TGI in test [10], in test [7] and in test [8] was over 100 µM throughout.

`CC(=O)OC(Cn1cncn1)(Cn1cncn1)c1ccc(Cl)cc1Cl`: the total growth inhibition concentration (TGI) in test [1], in [2], in test [3], in test [4], in [5] and in test [6] was over 100 µM throughout. For the same molecule, the TGI in test [10], in [7] and in [8] was over 100 µM throughout.

Turning to `Cc1ccc(NC(=O)c2cc(S(=O)(=O)N3C(=O)NC(=O)NS3(=O)=O)c(S)cc2Cl)cc1`, the GI50 in test [1] is 31.6 µM; in test [2], 27.8 µM; in test [3], 34.4 µM; in [4], 40.4 µM; in [5], 24.6 µM; in test [6], 35.1 µM. In addition, the GI50 in test [10] is 47.6 µM; in [7], 23.2 µM; in test [8], 30.6 µM. The concentration for total growth inhibition (TGI) was over 100 µM in test [1]; 71.3 µM in [2]; over 100 µM in test [3]; over 100 µM in test [4]; 66.8 µM in test [5]; over 100 µM in test [6]. In addition, the TGI was over 100 µM in test [10], 64 µM in test [7] and 60.9 µM in test [8].

For `O=c1cc(/C=C/c2ccccc2)[nH]c2cc3c(cc12)OCO3`, the TGI in test [1] worked out at 19.2 µM; in test [2], 29.4 µM; in test [3] it was 34.9 µM; in test [4], 12.7 µM; in test [5], 17.1 µM; in test [6], 21.4 µM. In addition, the concentration for total growth inhibition (TGI) is 30.2 µM in test [10] and over 100 µM in test [7].

In the case of `CCN(C(=O)/C=C/c1ccco1)c1ccccc1`, the TGI in test [1], in test [2], in test [3], in test [4], in test [5] and in [6] was over 100 µM in each case. In addition, the TGI in test [10], in test [7] and in [8] was over 100 µM throughout.

As to `CCCCCCCCCCCCCCCC[N+]1(C)CCOCC1`, the GI50 in [1] is 2.05 µM; in [2] it was 1.86 µM; in test [3], 2.42 µM; in test [4], 1.52 µM; in [5], 1.32 µM; in test [6] it was 2.79 µM. For the same molecule, the figures for the GI50 in [7], in test [8] and in test [9] were 2.41 µM, 5.32 µM and 2.38 µM, respectively. Besides, the TGI in test [1] was determined as 10.4 µM; in test [2] it was 4.17 µM; in test [3] it was 7.69 µM; in test [4], 2.99 µM; in [5], 2.98 µM; in test [6], 12.2 µM. In addition, the results for the TGI in test [7], in [8] and in test [9] were 6.79 µM, 22.5 µM and 6.71 µM, respectively.

`C=C1C[C@@H]2CC[C@@]34C[C@H]5O[C@H]6[C@@H](O3)[C@H]3O[C@H](CC[C@@H]3O[C@H]6[C@@H]5O4)CC(=O)C[C@@H]3[C@@H](OC)[C@@H](C[C@H](O)CN)O[C@H]3C[C@H]3O[C@@H](CC[C@@H]1O2)C[C@@H](C)C3=C`: the GI50 is under 0.01 µM in test [1]; 13.9 µM in test [2]; 0.0761 µM in test [4]; under 0.0106 µM in test [5]; under 0.01 µM in [6]; 1.03 µM in test [10]. The 50% growth inhibitory concentration (GI50) in [7] was under 0.01 µM; in test [8], 0.0358 µM. Further, the TGI is over 100 µM in test [1]; over 100 µM in [2]; over 100 µM in [3]; over 100 µM in [4]; over 81.9 µM in [5]; over 100 µM in [6]. Besides, the TGI in [10], in test [7] and in [8] was over 100 µM each time.

Turning to `C[C@H]1CCCC(O)C(O)[C@@H]2C[C@H](O[Si](C)(C)C(C)(C)C)C[C@H]2[C@H](O[Si](C)(C)C(C)(C)C)C(O)C(O)C(=O)O1` (stereo partly drawn), the GI50 in test [1] is 94.7 µM; in test [2], 17.2 µM; in [3] it was 47.9 µM; in [4] it was 10.6 µM; in [5], 39.1 µM; in test [6], 31.5 µM. The results for the GI50 in test [7], in test [8] and in [9] were 28.3 µM, 23.5 µM and 11.7 µM, respectively. Moreover, the TGI in [1] is over 100 µM; in [2], 43.2 µM; in test [3], over 100 µM; in test [4], 22.3 µM; in test [5] it was over 100 µM; in [6] it was over 100 µM. Besides, the TGI in test [7] is over 100 µM; in test [8], 89.7 µM; in test [9], 35.2 µM.

As to `CCCCN(CC)CC(C(C)=O)c1c(O)c2ccccc2oc1=O` (stereo not drawn), the total growth inhibition concentration (TGI) in test [1], in [2], in test [3], in test [4], in test [5] and in [6] was over 100 µM in each case. In addition, the TGI in test [10], in [8] and in test [9] was over 100 µM throughout.

Values taken from PubChem BioAssay (NCI).
